Measured values reported in patent publication US12178830B2, “Compositions and methods for adoptive cell therapy for cancer” (MEMORIAL SLOAN KETTERING CANCER CENTER, priority 2017, dated 2024).

Key:
HEK293T (kidney) = assay: CellTitre Glo in vitro cytotoxicity, HEK293T; type: cell-based, human
Jurkat (T cell) = assay: CellTitre Glo in vitro cytotoxicity, Jurkat; type: cell-based, human
primary T-cells = assay: CellTitre Glo in vitro cytotoxicity, primary T cells; type: cell-based, human
[1] = tested on: SKOV-3 human ovarian cancer cell line; assay: Cell viability, Skov-3; type: cell-based
Nalm6 = assay: Cell viability, Nalm6; type: cell-based
Raji = assay: Cell viability, Raji; type: cell-based, human
[2] = tested on: myeloid leukemia cell line SET2; assay: CellTitre Glo in vitro cytotoxicity, SET2; type: cell-based
[3] = tested on: panel of cancer cell lines and primary cell lines; assay: In vitro cytotoxicity of drug/prodrug pairs against a panel of cell lines; type: cell-based
Jurkat T cells = assay: Jurkat viability with prodrug plus supernatant from CPG2-secreting HEK293T cells; type: cell-based, human; settings: increasing prodrug, 48 hours, supernatant from CPG2-secreting HEK293T cells
Method: (§1) The in vitro cytotoxicity of AMS (structure 1c) and its prodrug variant (structure 1a) was tested against a variety of cell lines using a CellTitre Glo® assay (Promega, Madison, WI). […] Moreover, co-treatment with the prodrug and supernatant from CPG2-transfected HEK293T cells (see Example 3) led to cytotoxicity approaching that of the free drug (50 nM), consistent with CPG2-mediated cleavage of the prodrug to release the active parent drug. […] In contrast, AMS prodrug 1a was not activated by HEK293T cells expressing CPG intracellularly, which likely attributed to poor cell-penetrance of the prodrug due to the free bis-anionic gluatamate moiety.
Jurkat T cells were exposed to increasing concentrations of AMS (circle) or Pro-AMS with media alone (triangle) or supernatant from CPG2-secreting HEK293T cells (square). Cell viability was measured at 48 hours by CellTitre-Glo® luminescence assay.
Jurkat T cells were exposed to increasing concentrations of ZD2767P with media alone (triangle) or supernatant from CPG2-secreting HEK293T cells (square). Cell viability was measured at 48 hours by CellTitre-Glo® luminescence assay.

recombinant CPG2 = target: T1, recombinant CPG2 (Pseudomonas sp., UniProt P06621, N222Q/N264Q/N272Q); assay: Glutamate release assay (Amplex Red) with recombinant CPG2; type: biochemical; settings: high concentrations (~10 μM), 37° C.
T1 construct: 6xHis (pET151 Directional TOPO leader) (N); made in house; host or cells: E. coli BL21 star
Method: FIG. 4 provides exemplary data showing activation of P-AMS (see FIG. 2) by recombinant CPG2 expressed and purified from E. coli. (A) Human Jurkat T cells were incubated with or without P-AMS in the presence of increasing concentration of purified CPG2. Cell viability was measured at 48 hours by CellTitre-Glo luminescence. (B) Recombinant CPG2 was exposed to various concentrations of glutamated AMS prodrug. Following incubation at 37° C. (0.5, 1, 2, and 4 hr.), the reaction was combined with Amplex® Red (converts free glutamate to a fluorescent species) and fluorescent emission was analyzed using a fluorescence multiwell plate scanner.
The CPG2-pET151 vector was transformed into BL21 star E. coli cells and induced with IPTG. Bacteria were homogenized in a French Press and purified by affinity chromatography over Ni++ beads using standard protocols. Imidazole was exchanged via PBS dialysis and protein was purified via desalting spin columns. The expressed and purified CPG2 was assayed to confirm that the active enzyme was a potent converter of glutamated prodrugs. […] Pro-AMS was activated by recombinant CPG2 in vitro. Human Jurkat T cells were incubated with or without P-AMS in the presence of increasing concentration of purified CPG2. Cell viability of the Jurkat cells was measured at 48 hours by CellTitre-Glo® luminescence. […]

[4] = tested on: HEK293T cells expressing CPG2; assay: HEK293T cells expressing CPG2 variants exposed to P-AMS; type: cell-based, human
Method: as §1
Expression of CPG2 without a signal peptide (CPG2nosigp) was employed as a control. HEK293t cells stably transfected with CPG2 variants were exposed to P-AMS ([…]) for 48 hours and analyzed by bright field microscopy (FIG. 9A). Cells were exposed to varying concentrations of P-AMS and cell viability was analyzed at 48 hr post treatment (FIG. 9B).

SET2 cells = assay: SET2 viability with prodrug plus recombinant enzyme or enzyme-containing supernatant; type: cell-based; settings: supernatant from CPG2-secreting HEK293t cells; control media did not
Method: Recombinant CPG2 protein was initially synthesized, purified (FIGS. 18A and 18B), and incubated with increasing concentrations of prodrug in a glutamate release assay (FIG. 17C). Mass spectrometry was used to determine that the glutamate moiety was released from all of the glutamate prodrugs. The in vitro cytotoxicity of the prodrugs (FIG. 17B) were tested against the myeloid leukemia cell line SET2 using a CellTitre Glo® assay (Promega, Madison, WI).
SET2 cells were exposed to increasing concentrations of AMS (square) or glut-AMS with media alone (− control, triangle) or supernatant from CPG2-secreting HEK293t cells (circle). Cell viability was measured by CellTitre-Glo® luminescence assay.
Thus, antigen-dependent expansion of SEAKER T cells results in increased output of enzyme into the extracellular milieu.
To determine to respective enzyme output of the Beta-lactamase constructs relative to the previous CPG2 constructs, a quantitative sandwich ELISA was used to determine the concentration (ng/mL) of purified recombinant CPG2, and a quantitative nitrocefin assay was used to determine the concentration (ng/mL) of purified recombinant Beta-lactamase (FIG. 25A). Cell viability was measured by CellTitre-Glo® luminescence in the presence of prodrug (glut-AMS or ceph-AMS) and varying concentrations of purified recombinant CPG2 or Beta-lactamase (FIG. 25B).

[5] = target: T2, endogenous glutamate carboxypeptidase expressed in human prostate cells (Homo sapiens, UniProt Q04609); assay: Cell Titer-Glo viability of LNCap cells with AMS-glut prodrug (specificity for CPG2); type: cell-based
T2 construct: the endogenous glutamate carboxypeptidase expressed in human prostate cells; endogenous in cells; host or cells: LNCap cells
Description: This prodrug/drug combination was chosen for further development of the SEAKER systems.

[6] = tested on: human epithelial CACO-2 cells; assay: Cell permeability in CACO-2 cells; type: in vitro ADME
[7] = mouse, in vivo

Compound: NS(=O)(=O)OC[C@H]1O[C@@H](n2cnc3c(NC(=O)N[C@@H](CCC(=O)O)C(=O)O)ncnc32)[C@H](O)[C@@H]1O [P-AMS, ((9-((2R,3R,4S,5R)-3,4-dihydroxy-5-((sulfamoyloxy)methyl)tetrahydrofuran-2-yl)-9H-purin-6-yl)carbamoyl)-L-glutamic acid]
- Selective Index (HEK293T (kidney); HEK293t, prodrug vs AMS): >7.5
- IC50 (HEK293T (kidney); Homo sapiens, HEK-293T, read-out: IC50 (cell selectivity data)): > 5000 nM
- IC50 (Jurkat (T cell); Homo sapiens, Jurkat, read-out: IC50 (cell selectivity data)): > 1250 nM
- Selective Index (Jurkat (T cell); Jurkat (T cell), prodrug vs AMS): >162.3
- IC50 (primary T-cells; Homo sapiens, T-cell, read-out: IC50 (cell selectivity data)): > 3000 nM
- Selective Index (primary T-cells; Human T cell, prodrug vs AMS): >13.2
- IC50 ([1]; Homo sapiens, SK-OV-3, read-out: IC50 (cell selectivity data)): > 5000 nM
- Selective Index ([1]; Skov-3, prodrug vs AMS): >14.3
- IC50 (Nalm6; Homo sapiens, NALM-6, read-out: IC50 (cell selectivity data)): > 3000 nM
- Selective Index (Nalm6; Nalm6, prodrug vs AMS): >81.3
- IC50 (Raji; Homo sapiens, read-out: IC50 (cell selectivity data)): > 3000 nM
- Selective Index (Raji; prodrug vs AMS): >170.5
- IC50 ([2]; Homo sapiens, SET-2, read-out: IC50 (cell selectivity data)): > 3000 nM
- Selective Index ([2]; Set2, prodrug vs AMS): >87.2
- selective indices ([3]; all cell types tested): > 100
- IC50 ([3]; prodrug alone, cell lines tested): > 1000 nM
- SI selectivity index ([3]; prodrug vs free drug, up to): > 56
- cell viability with prodrug and CPG2 supernatant (Jurkat T cells): significant decrease in cell viability
- time in which the majority of the prodrug is converted (recombinant CPG2): ≤ 1 h
- activation by cells expressing CPG intracellularly ([4]; HEK293T cells expressing CPG intracellularly): not activated
- cell death of HEK293T cells stably expressing secreted or transmembrane CPG2 ([4]; P-AMS, 48 hr, CPG2nosigp control did not): significant cell death
- SET2 cell viability with prodrug and CPG2 supernatant (SET2 cells): significant decrease in cell viability
- stability to endogenous glutamate carboxypeptidase [5]: remained stable
- cell permeability [6]: no cell permeability
- toxicity [7]: non-toxic
